Assay results reported in patent publication US20130072527A1, “METHODS OF USING SUSTAINED RELEASE AMINOPYRIDINE COMPOSITIONS” (Acorda Therapeutics, Inc., priority 2008, published 2013).
Where two headings read alike, the source gives them in different places.

Tests used:
[1] = Plasma protein binding of fampridine
[2] = Rat i.v. and p.o. pharmacokinetics 2 mg/kg (M 2001-03); conditions: for Vdss: single p.o. dose 2 mg/kg; for bioavailability: rat, plasma, oral, 2 mg/kg
[3] = tested on: normal adult myelinated axons; conditions: Shi and Blight, 1997, cited from earlier work
[4] = Single-dose pharmacokinetics in healthy volunteers; conditions: administered orally
[5] = 14C-4-aminopyridine single oral dose in rats (HWI 6379-101); conditions: for tissue-to-blood ratio: rat, oral dose; for AUC / Tmax / t1/2: rats, 1 mg/kg single oral
Experimental: Studies were performed in rats and dogs using ^14C-labeled 4-aminopyridine (1 mg/kg) given as a single oral gavage dose in solution.
In a single-dose study, rats were administered ^14C-labeled 4-aminopyridine (1 mg/kg) p.o. Three animals per time point were sacrificed 1, 3, 8, and 24 hours post-dose. Blood was collected and tissues were excised for determination of radioactivity.

[6] = tested on: patients with multiple sclerosis; assay: Phase 3 study MS-F204: other measures (MSWS-12, SGI, CGI, Ashworth score); assay type: in vivo, human
From the text: (§1) The period of efficacy evaluation (visits 2-6) included 8 weeks of twice daily treatment. An additional week was incorporated to allow pharmacodynamic evaluation at Visit 7, which was not part of the primary endpoint. (See FIG. 1 for study design). In particular, this study is a double-blind, placebo-controlled, parallel group, 13-week study (one week post screening, two weeks of single-blind placebo run-in, eight weeks of double-blind treatment, and two weeks of follow-up) in patients with multiple sclerosis. […] One of the goals of this study is to confirm the primary outcome measure in a second prospective study, and equal randomization is the most efficient way to test this outcome. […] In order to ensure at least 184 patients complete the study, approximately 100 patients were randomized to each group.
Other measures. A number of other measures, not powered for statistical comparison, were included for integrated analyses across studies: MSWS-12, SGI, CGI, Ashworth score.
Spasticity may be assessed in addition to walking speed and leg strength. When assessed, spasticity is evaluated at the screening visit and each subsequent visit using the Ashworth Spasticity Score. Preferably, the evaluation is prior to the LEMMT and includes evaluation of six lower extremity muscle groups; knee flexors, knee extensors and hip adductors on both the right and left side of the body. […]

[7] = tested on: patients with multiple sclerosis; assay: Phase 3 study MS-F204: leg strength (LEMMT); assay type: in vivo, human
From the text: as §1
Secondary Outcome. The prospectively defined secondary outcome was leg strength, measured by Lower Extremity Manual Muscle Test (LEMMT) in 8 muscle groups, comparing the treated Timed Walk Responders and Timed Walk Non-Responders with placebo-treated patients.
[…] (p-values compared to placebo). […] (Analyzed by t-tests of the least-squares means using the mean square error via an ANOVA model with effects for responder analysis group and center.)

[8] = tested on: patients with multiple sclerosis; assay: Phase 3 study MS-F204: Timed 25 Foot Walk (Timed Walk Response); assay type: in vivo, human
[9] = In situ absorption study (stomach, small intestine); assay type: in vivo
From the text: Absorption. 4-Aminopyridine is rapidly absorbed following oral administration.

[10] = Raoof et al., 1997, cited from earlier work
[11] = Oral administration of non-sustained release 4-aminopyridine in animals
[12] = tested on: chronically injured spinal cord; conditions: (941 ng/mL); Shi et al., 1997; cited from earlier work
[13] = Single- and repeated-dose toxicity studies; assay type: in vivo; conditions: orally administered; most often
Experimental: Toxicology. In single- and repeated-dose toxicity studies, the dosing regimen greatly affected the rate of mortality and incidence of clinical signs in all species studied (with the possible exception of the mouse). In general, higher mortality rates and greater incidences of adverse clinical signs were noted when 4-aminopyridine was administered in a single large dose as compared to when the same total dose was given as two, three, or four equally divided sub-doses. Toxic responses to orally administered 4-aminopyridine were rapid in onset, most often occurring within the first 2 hours post-dose.
These clinical signs were not unexpected and represent exaggerated pharmacology of 4-aminopyridine.

[14] = 14C-4-aminopyridine single oral dose in dogs (HWI 6379-102); assay type: in vivo; conditions: for AUC / Tmax / t1/2: dogs, 1 mg/kg single oral
From the text: In both species, 14C 4-aminopyridine was rapidly absorbed.

[15] = one hour post-dose, 1 mg/kg p.o.

## Nc1ccncc1 [4-aminopyridine]
[1]
  fraction unbound: 0.97 to 0.99
[2]; female rats
  Vdss: 947.5 mL
[2]; female
  bioavailability: ~55%
[2]; male rats
  Vdss: 1094.4 mL
[2]; male
  bioavailability: ~66.5%
[2]; rats, 2 mg/kg p.o.
  Vdss difference between males and females adjusted for body weight: 2%
[2]; rats, 2 mg/kg p.o., not statistically significant
  Vdss lower in females than in males: 13%
[2]; rats, oral administration
  peak plasma concentrations lower in females than in males: 38%
[3]; (9.4 μg/mL)
  concentration below which the action potential shows little or no sensitivity: below 100 μM
[3]; (94.1 μg/mL)
  concentration causing gradual depolarization of the axon resting potential: above 1 mM
[4]
  absorption from the gastrointestinal tract: completely absorbed
[5]; blood
  elimination half-life: 1.21 h
[5]; cerebellum
  elimination half-life: 1.24 h
[5]; cerebrum
  elimination half-life: 1.63 h
[6]; among Timed Walk Responders but not Timed Walk Non-Responders
  MSWS-12 score, SGI, and CGI: improvement
[6]; significant in an unplanned analysis
  Ashworth Score compared to the placebo treated group: improvement
[7]; Fampridine-treated Timed Walk Non-Responders
  leg strength (LEMMT) versus placebo treated or Timed Walk Responder groups: not significantly different
[7]; Timed Walk Responders, p=0.028
  leg strength (LEMMT) versus placebo-treated patients: significantly improved
[8]; 10 mg b.i.d., with concomitant interferons, natalizumab, or glatiramer acetate (n=70)
  Timed Walk response rate: 42.9%
[8]; 10 mg b.i.d., without concomitant immunomodulators (n=49)
  Timed Walk response rate: 42.9%
[8]; Timed Walk Responders, throughout the treatment period
  improvement in walking speed from baseline: approximately 25%
[8]; eight weeks of treatment, 10 mg b.i.d.
  proportion of MS patients with consistently improved walking speed (Timed Walk Response): 42%
[9]; small intestine
  half-life: 0.67 h
[9]; stomach
  half-life: 1.81 h
[10]; large intestine
  regional apparent permeability coefficient (papp×10^−6, cm/sec): 2.9 ×10^−6 cm/sec
[10]; upper small intestine
  regional apparent permeability coefficient (papp×10^−6, cm/sec): 22.7 ×10^−6 cm/sec
[11]
  time of peak plasma concentrations after dosing: ≤ 1 h
[12]
  most effective concentration: about 10 μM
[13]
  onset of toxic responses post-dose: ≤ 2 h

## ^14C-4-Aminopyridine
[5]; 3 hours post-dose, 1 mg/kg p.o.
  radioactive dose in the carcass: 15.4%
[5]; cerebellum
  tissue-to-blood ratio: 1.48
[5]; cerebrum
  tissue-to-blood ratio: 3.07
[5]; [15]
  dose accounted for in total (radioactivity): 58.3%
  radioactivity in blood, % of dose: 0.7%
  radioactivity in kidney, % of dose: 1.6%
  radioactivity in liver, % of dose: 2.6%
  radioactivity in the carcass: 51%
[5]; females
  AUC: 506 ± 63.3 ng·h/mL
  Tmax: 0.5 h
  t1/2: 1.4 ± 0.17 h
[5]; males
  AUC: 498 ± 17.6 ng·h/mL
  Tmax: 1.0 h
  t1/2: 1.1 ± 0.04 h
[14]; females
  AUC: 1920 ± 150 ng·h/mL
  Tmax: 0.8 ± 0.3 h
  t1/2: 1.8 ± 0.04 h
[14]; males
  AUC: 2030 ± 406 ng·h/mL
  Tmax: 1.0 ± 0 h
  t1/2: 2.1 ± 0.14 h
[14]; doses equal on a mg/kg basis (1 mg/kg oral)
  Cmax and AUC in the dog relative to the rat: approximately four-fold higher
